Drawing on ChEMBL document CHEMBL4819029, “Biflavanones, Chalconoids, and Flavonoid Analogues from the Stem Bark of Ochna holstii” (J Nat Prod, 2021), this text covers MIC, Activity and EC50 for 6 compounds.

One experiment relates to Bacillus subtilis. Kind of experiment: Antibacterial activity against Bacillus subtilis incubated for 24 hrs by resazurin based assay. Type of experiment: functional.
A further experiment deals with Escherichia coli. In words: Antibacterial activity against Escherichia coli incubated for 24 hrs by resazurin based assay. Format: functional, organism-based. For orientation: Alamar Blue is a resazurin reagent that responds to reducing activity.
A further experiment relates to MCF7. Kind of experiment: Cytotoxicity against human MCF7 cells assessed as reduction in cell viability after 24 hrs by PrestoBlue dye based fluorescence assay. Type of experiment: functional. The note with it: MCF7, 24 h.

As usually defined, the MIC is the least concentration at which growth counts as inhibited. In general, EC50 refers to the concentration needed to bring the measured effect to its halfway point.

≈ marks a conversion by molar mass, not a printed value. Calls of active or inactive are those of the source. No cut-off for these calls is given here. Bounds are passed on as bounds.

Turning to `COc1cc(O)c2c(c1)OC(c1ccc(O)cc1)C(C1C(=O)c3c(O)cc(OC)cc3OC1c1ccc(O)cc1)C2=O` (stereo not drawn), in the experiment with Bacillus subtilis, the MIC is > 250 µM.

In the case of `COc1cc(O)c2c(c1)O[C@@H](c1ccc(O)cc1)[C@H]([C@@H]1C(=O)c3ccc(O)cc3O[C@H]1c1ccc(O)cc1)C2=O`, it took 14 µM (≈ 7.57 µg/mL) to inhibit growth with Bacillus subtilis (MIC).

Consider `O=C(c1ccc(O)cc1O)[C@H]1[C@H](C(=O)c2ccc(O)cc2O)[C@H](c2ccc(O)cc2)O[C@@H]1c1ccc(O)cc1`, for which the MIC with Bacillus subtilis is > 250 µM. Moreover, in the experiment on Escherichia coli, the result was inactive. For the same compound, the EC50 in the experiment with MCF7 was determined as 24 µM.

For `COc1ccc([C@H]2Oc3cc(OC)cc(O)c3C(=O)[C@@H]2[C@H]2C(=O)c3c(O)cc(OC)cc3O[C@@H]2c2ccc(O)cc2)cc1`, the MIC with Bacillus subtilis was > 250 µM.

Regarding `O=C(/C=C/c1ccc(O)c(Oc2ccc(CCC(=O)c3ccc(O)cc3O)cc2)c1)c1ccc(O)cc1O`, the MIC against Bacillus subtilis is > 250 µM.

As for `O=C1c2ccc(O)cc2O[C@@H](c2ccc(O)cc2)[C@@H]1[C@@H]1C(=O)c2ccc(O)cc2O[C@H]1c1ccc(O)cc1`, the MIC against Bacillus subtilis was > 250 µM.
